# Measured values: US20040229791A1, “Compositions and methods of modulating TGF-beta activity by fatty acids” (priority 2002, published 2004)
# Tests used:
# [1] = system: Mv1Lu cells; test: [Methyl-3H]-thymidine incorporation assay, TGF-β2-induced growth inhibition; assay type: cell-based, mink
# Source text: The levels of TGF ? β and ? 2M* also increase dramatically. α2M* is capable of inhibiting TGF- ? activity by forming complexes with TGF- ? and thus preventing it from binding to TGF ? β receptors in cells involved. Fatty acids may potentiate TGF ? β activity by blocking complex formation of ? 2M* and TGF ? β under these conditions. To test this possibility, we determined the effects of arachidonic acid on ^125I-TGF- ? 2 binding (in the presence and absence of α2M*) to Mv1Lu cells. ? 2M* is known to inhibit TGF- ? 2 more strongly than TGF ? β1 binding to T receptors in cells (13). Various concentrations of ^125I-TGF- ? 2 were preincubated with 200 μg/ml of ? 2M* in the presence or absence of 30 μM arachidonic acid for 30 min prior to the performance of binding assays in Mv1Lu cells. […] The residual ^125I-TGF- ? binding associated with the cells after ? 2M* inhibition was mainly due to non-specific binding of ^125I-TGF- ? 2. […] In the presence of 200 μg/ml of ? 2M*, the dose-response curve of TGF ? β2 shifted to the right. […] Addition of arachidonic acid at 0.5 and 1 μM reversed the inhibitory effect of. α2M* on TGF- ? 2-induced growth inhibition as measured by [methyl-^3H]-thymidine incorporation.
# [Methyl-^3H]-Thymidine Incorporation Assay—Mv1Lu cells were plated at a cell density of 7.5×10^4 cells/well in DMEM containing 0.1% fetal calf serum in 48-well cluster dishes. After 4 hr at 37° C. (to allow cell adherence), cells were treated with various concentrations of TGF- ? 2,2M* (0 or 200 μg/ml) and arachidonic acid ([…] or 1 μM). After 1h at 37° C., cells were pulsed with 1 μCi/ml [methyl-^3H]-thymidine for 2 hr. The [methyl-^3H]-th incorporation into cellular DNA was carried out in triplicate as described previously (23).
# [2] = Plasma clearance of 125I-TGF-β1 with and without α2M* and arachidonic acid; assay type: in vivo, mice; details: control experiments, no α2M*
# Method: TGF ? β1-α2M* and TGF- ? 2- ? 2M* complexes are cleared from plasma by the ? liver (30). To test the possibility that fatty acids may be able to affect the plasma clearance of TGF ? β and α2M* complexes, ^125I-TGF ? β1 or ^125I-TGF- ? 2 were prei presence or absence of 10 μM arachidonic acid at room temperature for 30 min, and then injected into mice via tail vein according to published procedures (19). At several time intervals (10 sec, 1, 2, 3, 5, 10, 15, 20, 30 and 60 min) about 50 μl of blood was collected and counted by a γ-counter. […] The t 1+α2M* or ^125I-TGF- ? 2+α2M* were approximately 4 min. These twith published values of free ^125I-TGF- ? 1,2 and ^125I-TGF- ? 1,2-α2M* complexes, respe (19). In the presence of arachidonic acid, the t1/2s of ^125I-TGF ? β1+α2M* and ^125I-TGF α2M* were decreased to approximately 1-2 min; these are essentially identical to the t1/2s of free ^125I-TGF- ? 1 and ^125I-TGF ? β2 (FIGS. 7A and B). In control experiments, arachidonic acid did no affect the plasma clearance of free ^125I-TGF ? β1 and ^125I-TGF- ? 2.
# Plasma clearance of ^125I-TGF ? β in the presence and absence of ? 2M*-^125I-TGF- ? 1 nM) or ^125I-TGF- ? 2 (1 nM) was pre-incubated with ? […] The radioactivity in the blood sample obtained at 10 s was taken as 100%.
smiles,measurement,setting,value
CCCCC/C=C\C/C=C\C/C=C\C/C=C\CCCC(=O)O [arachidonic acid],reversal of the inhibitory effect of α2M* on TGF-β2-induced growth inhibition,"[1]; 0.5 μM arachidonic acid, 200 μg/ml α2M*",reversed
same,reversal of the inhibitory effect of α2M* on growth inhibition induced by 1 pM TGF-β2,"[1]; 1 μM arachidonic acid, 200 μg/ml α2M*",almost completely reversed
same,effect on growth inhibition induced by TGF-β2 in the absence of α2M*,[1]; absence of α2M*,did not affect growth inhibition
same,effect on plasma clearance of free 125I-TGF-β1,[2],did no affect
